{"source": "patent US20100130457A1", "about": "“Phenothiazine Derivatives for Treatment of Asthma” (Immune Control, Inc., priority 2008, published 2010)", "key": {"[1]": {"test": "MPR1-MDCK permeability, potential to cross the blood-brain barrier", "type": "in vitro ADME", "conditions": "dog, MDCK", "excerpt": "(§1) A criterion for selecting an agent for proceeding to clinical trials is whether the compound crosses the blood-brain barrier. […] Fluphenazine (ICI-01175) is used as a control compound that has the potential to cross the blood-brain barrier. Table 1 summarizes the results of the test compounds for their potential to cross the blood-brain barrier."}, "MPR1-MDCK": {"test_system": "MPR1-MDCK", "test": "MPR1-MDCK permeability, potential to cross the blood-brain barrier", "type": "in vitro ADME", "conditions": "from A-B Papp and efflux ratio", "excerpt": "as §1"}, "RPMI 8226": {"test_system": "RPMI 8226", "test": "Inhibition of proliferation of RPMI 8226 cells", "type": "cell-based, human", "conditions": "RPMI cells in vitro", "excerpt": "The next set of experiments was designed to assess compounds that have low levels of brain penetration for the ability of the test compounds to inhibit cellular proliferation. An exemplary in vitro assay is to screen for the ability of the test compounds to inhibit proliferation of the B-cell neoplastic cell line RPMI 8226 (a plasmacytoma derived from a multiple myeloma patient (Matsuoka, et al., 1967, Proc. Soc. Exp. Biol. Med. 125: 1246-1250). However other cell line can be used such as, U266 (established from an IgE-secreting myeloma patient (Nilsson, et al., 1970, Clin. Exp. Immunol., 7: 477-489) and ARH77 (an EBV transformed plasma cell leukemia (Burk, et al., 1978, Cancer Res. 38: 2508-2513).\nFIG. 1 is a graph depicting the effects on the test compounds on RPMI cell viability."}, "Nav1.5": {"target": "Nav1.5 (Homo sapiens, UniProt Q14524)", "sequence (Q14524 whole entry)": "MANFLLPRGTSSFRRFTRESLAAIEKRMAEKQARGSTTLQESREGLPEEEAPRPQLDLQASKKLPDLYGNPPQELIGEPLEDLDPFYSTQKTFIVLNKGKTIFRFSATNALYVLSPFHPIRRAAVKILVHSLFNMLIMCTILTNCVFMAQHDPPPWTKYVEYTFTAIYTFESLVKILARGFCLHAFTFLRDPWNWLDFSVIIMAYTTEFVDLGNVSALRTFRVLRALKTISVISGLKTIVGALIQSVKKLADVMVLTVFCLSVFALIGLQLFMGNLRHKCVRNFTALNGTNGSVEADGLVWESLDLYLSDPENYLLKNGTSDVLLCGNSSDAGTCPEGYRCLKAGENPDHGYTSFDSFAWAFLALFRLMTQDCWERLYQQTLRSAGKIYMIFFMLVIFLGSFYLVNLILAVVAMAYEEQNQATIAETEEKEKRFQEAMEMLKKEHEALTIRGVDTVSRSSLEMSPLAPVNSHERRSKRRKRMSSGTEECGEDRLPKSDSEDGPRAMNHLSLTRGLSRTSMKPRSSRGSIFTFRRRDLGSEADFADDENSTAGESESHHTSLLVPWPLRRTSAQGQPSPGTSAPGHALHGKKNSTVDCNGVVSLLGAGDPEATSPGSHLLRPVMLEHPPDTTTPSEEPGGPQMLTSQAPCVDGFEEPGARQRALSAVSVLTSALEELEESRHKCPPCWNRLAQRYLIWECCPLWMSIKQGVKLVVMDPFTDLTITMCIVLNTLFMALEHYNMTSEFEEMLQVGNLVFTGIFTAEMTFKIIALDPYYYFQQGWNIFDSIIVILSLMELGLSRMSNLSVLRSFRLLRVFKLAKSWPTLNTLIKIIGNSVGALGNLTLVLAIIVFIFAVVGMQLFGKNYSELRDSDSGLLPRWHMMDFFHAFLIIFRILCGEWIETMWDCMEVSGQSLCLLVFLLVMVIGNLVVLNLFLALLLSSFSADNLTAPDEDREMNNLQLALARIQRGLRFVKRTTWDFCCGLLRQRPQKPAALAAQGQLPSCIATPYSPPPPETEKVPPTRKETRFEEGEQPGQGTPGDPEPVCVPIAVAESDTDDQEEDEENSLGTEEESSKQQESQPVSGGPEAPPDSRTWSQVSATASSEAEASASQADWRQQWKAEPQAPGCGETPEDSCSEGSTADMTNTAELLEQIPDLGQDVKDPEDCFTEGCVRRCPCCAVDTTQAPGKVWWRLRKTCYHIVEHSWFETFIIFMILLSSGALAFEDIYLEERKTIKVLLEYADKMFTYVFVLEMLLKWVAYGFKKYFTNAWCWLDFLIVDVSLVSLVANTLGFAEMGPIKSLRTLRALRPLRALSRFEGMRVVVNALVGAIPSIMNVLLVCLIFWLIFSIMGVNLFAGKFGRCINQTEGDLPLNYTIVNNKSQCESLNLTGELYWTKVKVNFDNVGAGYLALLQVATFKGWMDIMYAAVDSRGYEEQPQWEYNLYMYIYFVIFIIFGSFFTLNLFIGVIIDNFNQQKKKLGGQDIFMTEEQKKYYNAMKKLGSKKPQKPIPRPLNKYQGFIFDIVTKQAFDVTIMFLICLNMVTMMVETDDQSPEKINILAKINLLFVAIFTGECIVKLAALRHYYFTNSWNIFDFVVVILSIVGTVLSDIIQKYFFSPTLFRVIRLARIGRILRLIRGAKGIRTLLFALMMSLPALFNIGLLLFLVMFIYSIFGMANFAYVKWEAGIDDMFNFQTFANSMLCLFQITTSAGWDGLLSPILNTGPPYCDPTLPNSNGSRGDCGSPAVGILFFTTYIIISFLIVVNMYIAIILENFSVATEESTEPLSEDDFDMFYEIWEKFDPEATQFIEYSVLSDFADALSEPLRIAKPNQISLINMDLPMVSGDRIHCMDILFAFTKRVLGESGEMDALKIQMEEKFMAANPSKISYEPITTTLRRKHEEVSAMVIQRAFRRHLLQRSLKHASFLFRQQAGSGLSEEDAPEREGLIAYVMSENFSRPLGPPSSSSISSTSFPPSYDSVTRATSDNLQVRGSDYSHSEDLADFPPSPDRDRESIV", "test": "Effects on action potential in a mammalian cell, sodium channel block", "type": "cell-based", "excerpt": "Voltage-gated sodium channels are responsible for the initial phase of the action potential, which is a wave of electrical depolarisation usually initiated at the soma of the neuron and propagated along the nerve axon to the terminals. At the terminals, the action potential triggers the influx of calcium and the release of neurotransmitter. The voltage-gated sodium channel family is made up of four brain specific subtypes, Nav1.1, 1.2, 1.3 and 1.6; as well as Nav1.4, which is found on skeletal muscle; Nav1.5, which is found on cardiac muscle; and Nav1.7, 1.8, 1.9, are found predominantly on sensory neurons.\nThe effects of ICI-735 on action potential in a mammalian cell was tested. Briefly, it was observed that ICI-735 was able to block Nav1.5."}, "muscarinic receptor M3": {"target": "muscarinic receptor M3 (Homo sapiens, UniProt P20309)", "sequence (P20309 whole entry)": "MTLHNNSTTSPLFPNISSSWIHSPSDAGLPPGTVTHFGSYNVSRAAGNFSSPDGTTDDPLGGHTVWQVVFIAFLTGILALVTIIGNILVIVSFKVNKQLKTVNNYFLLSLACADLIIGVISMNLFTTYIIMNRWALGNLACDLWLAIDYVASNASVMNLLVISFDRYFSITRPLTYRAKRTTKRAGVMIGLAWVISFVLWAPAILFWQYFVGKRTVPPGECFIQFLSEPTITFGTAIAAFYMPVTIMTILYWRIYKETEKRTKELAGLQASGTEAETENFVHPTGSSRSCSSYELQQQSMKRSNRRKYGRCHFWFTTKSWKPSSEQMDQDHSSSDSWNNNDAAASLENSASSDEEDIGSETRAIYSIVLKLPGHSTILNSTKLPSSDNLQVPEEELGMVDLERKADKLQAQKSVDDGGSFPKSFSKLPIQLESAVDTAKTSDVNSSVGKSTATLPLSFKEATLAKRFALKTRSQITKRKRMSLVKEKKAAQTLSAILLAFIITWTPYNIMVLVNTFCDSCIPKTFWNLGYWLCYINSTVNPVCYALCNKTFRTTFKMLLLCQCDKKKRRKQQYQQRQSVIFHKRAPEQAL", "test": "In vitro functional antagonism", "type": "biochemical"}, "human small airway": {"test_system": "human small airway", "test": "Human precision-cut lung slices (PCLS), small airway contraction", "conditions": "for CCh-induced bronchoconstriction after pretreatment of lung slices: C-027 10^−5 M, formoterol 0.3 nM", "experimental": "Human precision-cut lung slices (PCLS) permit evaluation of pharmacological responses of novel drug candidates applied directly to their target tissue.\nHuman precision-cut lung slices (PCLS, 250 μm thick) containing a small airway were contracted to carbachol, histamine and passively sensitization to induce airway closure±pre-incubation with ICI-735 (10 μM; 2 hours); FIG. 13. For example, human lung slices containing a small airway were incubated overnight with either negative control IgG (4 μg/mL) or positive control IgE (4 μg/mL). The slices were tested as follows: 1) IgG+anti-IgE; 2) IgE+anti-IgE; 3) IgE+Dexamethasone (1 μM)+anti-IgE; and 4) IgE+ICI-735 (10 μM) +anti-IgE. Dexamethasone and ICI-735 were pre-incubated 2 hours prior to anti-IgE; anti-IgE is used to crosslink antibodies and induce mast cell degranulation, which is believed to release histamine and cause airway contract. […]\nHuman lung tissue contains multiple cell types, including mast cells, that localize in the region of airway smooth muscle, and that increase in number in individuals with asthma. Cross-linking of Fcε;R1 receptors on surfaces of mast cells leads to release of granules that contain smooth muscle contractile agonists, including histamine and leukotrienes.\nTo test C-027 as a blocker of histamine-induced bronchoconstriction, lung slices were incubated for 2 hours with C-027, and small airway contraction was evaluated after addition of increasing concentrations of histamine."}}, "note": "Entries after “also recorded” stand apart in the source; their conditions may differ. Like-named read-outs stand apart in the source and are kept apart here."}
{"smiles": "NCC(=O)NCCN1CCN(CCCN2c3ccccc3Sc3ccc(C(F)(F)F)cc32)CC1", "note": "[ICI-735]", "values": [{"measurement": "Papp A→B", "setting": "[1]; A-B direction", "result": 0.23, "unit": "×10⁻⁶ cm/s"}, {"measurement": "recovery", "setting": "[1]; A-B direction, read-out: % Recovery A-B", "result": 47, "unit": "%"}, {"measurement": "Papp B→A", "setting": "[1]; B-A direction", "result": 28.6, "unit": "×10⁻⁶ cm/s"}, {"measurement": "recovery", "setting": "[1]; B-A direction, read-out: % Recovery B-A", "result": 33, "unit": "%"}, {"measurement": "efflux ratio", "setting": "[1]; efflux ratio", "result": 124}, {"measurement": "Brain Penetration Classification", "setting": "MPR1-MDCK", "result": "Low (A-B Papp > 3.0 and Efflux Ratio > 10: Low)"}, {"measurement": "ability to inhibit proliferation of RPMI cells", "setting": "RPMI 8226", "result": "did not inhibit proliferation of RPMI cells in vitro as well as some other compounds; also recorded: effective, but not as effective"}, {"measurement": "IC50", "setting": "Nav1.5", "result": 8.33, "unit": "µM"}, {"measurement": "block of Nav1.5", "setting": "Nav1.5", "result": "able to block"}, {"measurement": "in vitro functional antagonism for muscarinic receptor M3", "setting": "muscarinic receptor M3", "result": "weak in vitro functional antagonism; also recorded: weak or undetectable"}, {"measurement": "histamine response at the highest concentration tested", "setting": "human small airway; 10 μM", "result": "does not completely prevent"}, {"measurement": "histamine-induced contraction / bronchoconstriction", "setting": "human small airway; 2 hours pre-incubation, increasing concentrations of histamine", "result": "antagonize; also recorded: blocks; also recorded: prevented"}, {"measurement": "CCh-induced bronchoconstriction after pretreatment of lung slices", "setting": "human small airway", "result": "antagonize; also recorded: prevents and reverses bronchoconstriction"}, {"measurement": "CCh-induced bronchoconstriction after pretreatment of lung slices", "setting": "human small airway; listed as C-027", "result": "blocks"}, {"measurement": "airway contraction to IgE/anti-IgE (passive sensitization, mast cell degranulation)", "setting": "human small airway; ICI-735 10 μM, dexamethasone 1 μM, pre-incubated 2 hours", "result": "antagonize; also recorded: attenuation; also recorded: blocks bronchoconstriction"}, {"measurement": "IL-13-induced airway hyper-responsiveness to CCh", "setting": "human small airway; IL-13 50 ng/mL overnight, compound one hour prior", "result": "diminishes"}, {"measurement": "relaxation of maximally contracted airway smooth muscle", "setting": "human small airway; in the presence of 30 μM CCh, isoproterenol 10 μM", "result": "induces relaxation"}]}
